The text below walks through data of patent publication US9592260B2, “Cancer therapy with a parvovirus combined with an HDAC inhibitor” (priority 2010, dated 2017).

Series [1] has as its system cervical carcinoma cell cultures (HeLa, CaSki, SiHa, CxCa). In words: LDH assay, H-1PV with or without HDACI, statements over all cervical cultures. The class given is cell-based, human. Conditions: VPA 1 mM, 72 h, FIG. 5. As to the method:
Cervical cancer derived cell lines (HeLa, CaSki, SiHa) and non-established cervical cancer cell cultures (CxCa) were infected with H-1PV at the indicated MOIs (pfu/cell) and grown for 72 h in the presence (grey bars) or absence (white bars) of VPA (1 mM). After incubation, cell lysis was evaluated by measuring the release of lactate dehydrogenase (LDH). Hatched bars at the right hand side of each chart show the minimal dose of H-1PV able to kill 90-100% of the cancer cells as monotherapy.
The sub-lethal dose of VPA boosted parvovirus-induced cell killing in a synergistic manner, increasing by up to 50-100%. […] Similar results were also obtained combining H-1PV with NaB, TSA or SaHa (Table 2).

Another series has as its system HeLa established tumors. Format: in vivo, nude rat. Conditions: VPA 100 mg/kg; compared with mock-treated controls. From the text: Data shown represents the average values with standard deviation bars.
The subject of another series is AsPC-1. In words: LDH assay, H-1PV with or without VPA, PDAC cells. Conditions: AsPC-1 (printed AP-1), 72 hours, H-1PV at various MOI, FIG. 7. As to the method:
(§1) APC-1 and Capan-1 cells were plated in 96 wells plates (2000 cells/well). After 16 hours, cell were infected with H-1PV at the indicated MOI and grown in the presence or absence of VPA for additional 72 hours. Cellular lysis was measured by LDH assay.
(§2) Parvovirus cytotoxicity was measured by evaluating the release of lactate dehydrogenase in the medium using the CytoTox 96 kit from Promega (Mannheim, Germany). The day before infection, 2000 cells were seeded per well in 96-well plate in 50 μl of culture medium. After 24 hours, cells were infected with 50 μl of serum-free medium containing H-1PV or treated with HDAC inhibitors in 7 replicates per condition. The day of measurement, 3 out of 7 wells were incubated for 30 minutes with lysis buffer to estimate the maximum LDH release under conditions of 100% lysis. Afterwards, the plate was centrifuged and 50 μl of supernatant were mixed with the substrate mix. The LDH enzyme catalyzes a colorimetric reaction that is indicative of the amount of enzyme released in the medium. After 30 minutes, the reaction was stopped and analyzed using the Elisa reader MultiScan at 492 nm.
(§3) Cells were seeded in 96 wells plate and then infected with various concentrations of H-1PV in the presence or absence of the HDACI Valproic acid (VPA).

The test system of the next series is Capan-1. In words: LDH assay, H-1PV with or without VPA, PDAC cells. Particulars: 72 hours, H-1PV at various MOI, FIG. 7. As to the method:
as §1, §2, §3

Each structure is given as a SMILES string.

Consider `CCCC(CCC)C(=O)O` [VPA, valproic acid], for which the “effect on cellular growth when applied singly” value in series [1] is “did not have any significant effect”. Further, in the series with HeLa established tumors, the tumour growth result is “failed to impair tumour growth”. Besides, the “cell lysis / cytotoxicity (LDH assay)” value in the series on AsPC-1 and in the series with Capan-1 was “no effect” throughout.
